# How the values were obtained:
# Bcl-xL = assay: Western blot of Bcl-xL in 3T3L1 cells; assay type: cell-based, mouse; details: SEAM treatment (200 nM)
# Protocol: (§1) Mouse 3T3-L1 preadipocytes were purchased from ZenBio™ (Research Triangle Park, N.C., USA) and passaged as preconfluent cultures in DMEM high glucose (Invitrogen, Carlsbad, Calif.) with 10% newborn calf serum (Sigma-Aldrich, St. Louis, Mo.) at 37° C. and 10% CO2. Once confluent, cells were differentiated (day 0) in DMEM high glucose with 10% fetal bovine serum (Atlas Biological, Fort Collins, Colo.), 10 μg/mL bovine insulin (Sigma), […] dexamethasone (Sigma), and 0.5 mM isobutyl-1-methylxanthine (Sigma). On day 2, media was replaced with DMEM high glucose, 10% FBS, and bovine insulin. Day 4 and afterwards, cells were cultured in DMEM high glucose plus 10% FBS.
# (§2) Protein lysates were obtained from 3T3L1 cells using lysis buffer containing proteases. Protein lysates (40 μg) were separated by SDS-PAGE with 10% gels. Proteins were electrophoretically transferred to nitrocellulose membranes, blocked with Tris-buffered saline containing 0.1% Tween 20 and 5% nonfat dried milk, washed, and incubated with a polyclonal anti-PARP (Upstate Biotechnology), anti-XIAP (AnaSpec), anti-Bcl2, anti-caspase 9 (Calbiochem), anti-Bcl-x (Santa Cruz Biotechnology), and anti-PKCδ (Cell Signaling) or antibody against the hinge-region of PKCδII (Patel lab (19)). […] Data was analyzed using AlphaView® software.
# [1] = system: PKCδ exon 9 5′ splice site II; assay: pSPL3-PKCδ splicing minigene RT-PCR; assay type: cell-based, mouse; details: 200 nM SEAM, 24 hours after minigene transfection, harvested on day 2
# From the text: The pSPL3 vector was modified to remove cryptic 5′ splice sites as described in a previous publication (25). The pSPL3 vector was digested with BamHI (in the MCS) and NheI. Primers to amplify genomic PKCδ from 3T3L1 cells flanked mouse PKCδ exon 9 and were designed to include the BclI site in the forward primer (in bold type) and BcuI site in the reverse primers (in bold type). The forward primer was designed to amplify 137 bp of 3′ intronic sequence such that the product contained the branch point and 3′ splice site and the reverse primer included 284 bp 5′ intronic sequence and included the 5′ splice site II of exon 9. The primers were: forward primer 5′ […] 3′ (SEQ ID NO:6); reverse primer 5′ […] 3′ (SEQ ID NO:7). The product was verified by sequencing and ligated into the digested pSPL3 vector. The overhangs of the selected restriction enzymes can hybridize and this enabled cloning of the PCR product in the proper orientation. The resulting pSPL3-PKCδ minigene was verified by restriction digestion and sequencing.
# Splicing minigenes are advantageous to study alternative splicing events without influence from endogenous factors. […] Utilization of 5′ splice site I on exon 9 gave rise to PKCδI while utilization of downstream 5′ splice site II gave rise to PKCδII. After 24 hours, the cells were treated with 200 nM SEAM. […]
# PKCδI [2] = assay: Western blot of PKCδI expression in differentiating 3T3L1 cells; assay type: cell-based, mouse
# Protocol: as §1
# (§3) Protein lysates were obtained from 3T3L1 cells using lysis buffer containing proteases. Protein lysates (40 μg) were separated by SDS-PAGE with 10% gels. Proteins were electrophoretically transferred to nitrocellulose membranes, blocked with Tris-buffered saline containing 0.1% Tween 20 and 5% nonfat dried milk, washed, and incubated with a polyclonal anti-PARP (Upstate Biotechnology), anti-XIAP (AnaSpec), anti-Bcl2, anti-caspase 9 (Calbiochem), anti-Bcl-x (Santa Cruz Biotechnology), and anti-PKCδ (Cell Signaling) or antibody against the hinge-region of PKCδII (Patel lab (19)). This antibody is specific for PKCδII, as it recognizes the extended hinge region, which is absent in PKCδI (24). Other antibodies used are as follows: PPARγ, Akt, pAkt 473, TNFα, Adiponectin, p-BAD (S316), p-PTEN (Cell Signaling, Boston, Mass.), β-actin A5441 (Sigma). After incubation with anti-rabbit IgG-HRP, enhanced chemiluminescence (Pierce) was used for detection. FluorChem M™ (Protein Simple) imaging system was used to capture digital chemiluminescence images and process western blots. Data was analyzed using AlphaView® software.
# 3T3L1 cells = assay: Cytotoxicity assay / cell viability; assay type: cell-based, mouse; details: 200 nM SEAM in 3T3L1 cells
# Protocol: WST-1 (Roche Molecular Biochemicals, IN) was added to 3T3L1 cells (in triplicate) that are treated without or with SEAM to a final concentration of 10% (vol/vol). Cells were incubated for 2 hours at 37° C. The formazon dye produced by viable cells was quantified using a spectrophotometer set at a wavelength of 440 nm and absorbance recorded for each well (reference wavelength, 690 nm).
# Immunoblotting for PPARγ and adiponectin was also performed to determine whether SEAM affected differentiation of 3T3L1 cells. […] Total apoptosis was measured by flow cytometry using Annexin V-PI staining (FIG. 8d). To determine whether SEAM was toxic to cells, cell viability was evaluated upon treatment of 200 nM SEAM in 3T3L1 cells. Cytotoxicity was measured using the […] assay. This assay measures the reducing potential of the cell using a colorimetric reaction. Viable cells reduce the […] to a colored formazan product.
# [3] = system: cPKCs: α, βI, βII, γ; nPKCs: η, ε, θ; aPKCs: ζ, λ; assay: Immunoblotting for other PKC family isoforms (specificity); assay type: cell-based, mouse; details: SEAM treatment (200 nM)
# Protocol: as §1
# Protein lysates were obtained from 3T3L1 cells using lysis buffer containing proteases. Protein lysates (40 μg) were separated by SDS-PAGE with 10% gels. […] Data was analyzed using AlphaView® software.
# 3-hydroxystilbene was modified by Mannich coupling to add bis-diethylaminomethyl group (described in Example 1). Several synthetic stilbenoids with structural modifications to the basic resveratrol structure were evaluated. […]
# 3T3L1 adipocytes [4] = assay: Apoptosis assay, Annexin V-PI staining by flow cytometry; assay type: cell-based, mouse
# Protocol: as §1
# 3T3L1 preadipocytes were cultured on 60 mm dishes as described above. For apoptosis assays, cells were serum-starved for 48 hours. Media were collected and cells were washed one time with HBSS and then trypsinized for 5.0 minutes. Five ml complete media was added to neutralize the trypsin. Media and washes were pooled and centrifuged at 1200 RPMS for five minutes. […] 400 μl binding buffer was added and cells were analyzed by flow cytometry within one hour Annexin V-FITC and PI fluorescence, which stains apoptotic cells, were measured using an Accuri C6 flow cytometer.
# PKCδII [5] = assay: RT-PCR of PKCδII splicing/mRNA in differentiating 3T3L1 preadipocytes; assay type: cell-based, mouse
# Protocol: as §1
# Total RNA was isolated from 3T3L1 cells with RNA-Bee (Tel Test Center) as recommended by the manufacturer. RNA was also obtained from adipose tissues of mice fed with or without resveratrol. 2 μg RNA was used to synthesize first-strand cDNA with an Oligo(dT) primer and Omniscript R kit (Qiagen). The following primers were used in PCR: PKCδ forward primer 5′ […] 3′ (SEQ ID NO:1); reverse primer 5′ […] 3′ (SEQ ID NO:2). These primers amplified PKCδI and PKCδII simultaneously. […] Following PCR, 5% of products were resolved on 6% PAGE gels and detected by silver staining. The PCR reaction was optimized for linear range amplification to allow for quantification of products. […]
# adiponectin = assay: Western blot of adiponectin in 3T3L1 cells; assay type: cell-based, mouse; details: SEAM treatment, days 4 and 8
# Protocol: as §1, §2
# Bcl2 = assay: Western blot of Bcl2 in 3T3L1 cells; assay type: cell-based, mouse; details: SEAM treatment (200 nM)
# Protocol: as §1, §2
# PPARγ = assay: Western blot of PPARγ (adipogenesis marker) in differentiating 3T3L1 cells; assay type: cell-based, mouse
# Protocol: as §1, §3
# PKCδII [6] = assay: PCR of PKCδII in adipose tissue of mice fed resveratrol; assay type: in vivo, mouse; details: 400 mg resveratrol per kg body weight in diet, once daily
# Protocol: (§4) Total RNA was obtained from mouse adipose tissues from Dr. You (University of South Florida). 8-week old male C57BL/6J (Jackson labs) were either fed a chow diet (control) or diet with added 400 mg resveratrol per kg body weight, once daily 23); n=5. Total RNA was extracted from adipose tissues from these mice. All protocols were reviewed and approved by the Institutional Animal Care and Use Committee at University of South Florida, Division of Comparative Medicine.
# (§5) Total RNA was isolated from 3T3L1 cells with RNA-Bee (Tel Test Center) as recommended by the manufacturer. RNA was also obtained from adipose tissues of mice fed with or without resveratrol. 2 μg RNA was used to synthesize first-strand cDNA with an Oligo(dT) primer and Omniscript R kit (Qiagen). The following primers were used in PCR: PKCδ forward primer 5′ […] 3′ (SEQ ID NO:1); reverse primer 5′ […] 3′ (SEQ ID NO:2). These primers amplified PKCδI and PKCδII simultaneously. PKCδII-specific antisense primer (5′ […]3′) (SEQ ID NO:3). β-actin forward primer 5′ […] 3′ (SEQ ID NO:4); reverse primer 5′ […] 3′ (SEQ ID NO:5). Following PCR, 5% of products were resolved on 6% PAGE gels and detected by silver staining. The PCR reaction was optimized for linear range amplification to allow for quantification of products. Densitometric analyses of the bands were done using the Un-Scan IT™ Analysis Software (Silk Scientific).
# 3T3L1 adipocytes [7] = assay: Oil Red O staining for lipid accumulation; assay type: cell-based, mouse; details: 25 μM on day 4, Oil Red O staining on day 8
# Protocol: as §1
# 3T3L1 preadipocytes were washed with PBS and fixed with 10% formalin for 30 minutes. The cells were then rinsed and incubated with 60% isopropanol for 5 minutes. Oil Red O stain (0.15%, Sigma) was added and incubated for 10 minutes. Images were captured with Nixon confocal microscope.
# PKCδI [8] = assay: PCR of PKCδI in adipose tissue of mice fed resveratrol; assay type: in vivo, mouse; details: 400 mg resveratrol per kg body weight in diet, once daily
# Protocol: as §4, §5
# SIRT1 = details: mice, 400 mg resveratrol; earlier studies (23); cited from earlier work
# PKCδII [9] = assay: Western blot of PKCδII expression in differentiating 3T3L1 cells; assay type: cell-based, mouse; details: for inhibition of PKCδII expression levels: 25 μM administered on day 5 (mature adipocyte)
# Protocol: as §1, §3
# TNFα = details: mice, 400 mg resveratrol; earlier studies (23); cited from earlier work
# 3T3L1 preadipocytes = assay: Resveratrol dose finding in differentiating 3T3L1 preadipocytes; assay type: cell-based, mouse; details: doses 10 to 100 μM tested, data not shown
# Protocol: as §1
# Several studies have shown its role in inhibiting adipose cell proliferation, lipid accumulation and stimulation of apoptosis and lipolysis in mature adipocytes. Further, resveratrol is shown to modulate alternative splicing of genes (29). However, its mechanisms of action and target proteins in apoptotic pathways during adipogenesis was not determined. […] Resveratrol treatment administered on day 5 (mature adipcoyte) inhibited PKCδII expression levels by 65% on day 6 and by more than 90% on day 8 (FIG. 7I a, b, c). Simultaneously, up to a 50% increase in PKCδI levels was observed on days 6 and 8.
compound,measurement,setting,value
CCN(CC)Cc1ccc(/C(C)=C(\C)c2ccc(CN(CC)CC)c(O)c2)cc1O [SEAM],decrease of BclxL levels,Bcl-xL,20%
same,utilization of 5′ splice site II,[1],inhibited
same,PKCδI expression,"PKCδI [2]; 100 nM, data not shown",not affected
same,PKCδI levels,PKCδI [2]; SEAM treatment (200 nM),did not affect
same,cell viability,3T3L1 cells,viable
same,expression levels of other PKC isoforms,[3],did not affect
same,apoptosis levels,"3T3L1 adipocytes [4]; 200 nM SEAM, Annexin V-PI staining",increased compared to control
same,inhibition of PKCδII splicing,"PKCδII [5]; 100 nM, data not shown",60%
same,decrease of PKCδII compared to control cells,PKCδII [5]; 200 nM,80%
same,decrease of adiponectin compared to control,adiponectin,20%
same,decrease of Bcl2 levels,Bcl2,40%
same,decrease of PPARγ2 compared to control,"PPARγ; SEAM treatment, days 4 and 8",5%
"Oc1ccc(C=Cc2cc(O)cc(O)c2)cc1 [resveratrol, 3,5,4′-trihydroxystilbene]",decrease in PKCδII expression in adipose tissue,PKCδII [6],70%
same,increase in PKCδI levels,"PKCδI [2]; 25 μM resveratrol, days 6 and 8",≤ 50%
same,decline in lipid accumulation compared to control,3T3L1 adipocytes [7],greater than 75%
same,increase in PKCδI expression in adipose tissue,PKCδI [8],25%
same,adipocytes undergoing apoptosis,"3T3L1 adipocytes [4]; 25 μM on day 2, collected on day 8",70%
same,SIRT1 levels in adipose tissue,SIRT1,increased
same,decrease in PKCδII expression,PKCδII [9]; 25 μM administered on day 0 (preadipocyte),less than 10%
same,inhibition of PKCδII expression levels,PKCδII [9]; read on day 6,65%
same,inhibition of PKCδII expression levels,PKCδII [9]; read on day 8,more than 90%
same,TNFα levels in adipose tissue,TNFα,decreased
same,effect on the cells,3T3L1 preadipocytes; 100 μM resveratrol,detrimental to the cells
same,optimal dose,3T3L1 preadipocytes,25 µM
same,PPARγ2 levels,"PPARγ; 25 μM resveratrol, day 8",inhibition of PPARγ2 levels
same,decline of PPARγ1 levels,"PPARγ; 25 μM resveratrol, day 8",30%

# Reference: patent publication US9458086B1, “Compositions and methods for adipocyte modulation” (University of South Florida (A Florida Non-Profit …, priority 2013, dated 2016)
